Experimental findings from US5451411A, “Methods and compositions for the oral delivery of therapeutic agents” (University of Washington, priority 1993, dated 1995) are described below.

The format of series [1] is physicochemical. On the procedure: Beads prepared in accordance with the procedure of Example 1 and containing 50 μg of ^125 I-TGF-β1 in 3.75-7.5 mg (original weight of alginate) were transferred to 15.0 mL polypropylene tubes containing 13.0 mL of PBS or of 0.1 N HCl at 37° C. In some cases, 1% BSA was added to the release media. The polypropylene tubes were gently shaken using a orbital shaker (200 rotations/minutes). At selected times, 100 μL aliquots were taken and counted for radioactivity. Care was taken so that aliquots contained no beads or bead fragments. The cumulative ^125 I-TGF-β1 released from the beads was calculated after correcting for volume changes. After 24 hours, the beads in 0.1 N HCl were transferred to PBS.
(§1) Alginate beads containing TGF-β1 and 90 kDa PAA (75:10 w/w in alginate:PAA) were prepared following the procedure of Example 1, and were acid treated for 30 minutes at 37° C. in 0.1 N HCl, as described in Example 2. The beads were then placed in PBS, pH 7.4, and the immunoreactivity of released TGF-β1 was determined by ^125 I radiolabel and ELISA, as described in Example 2. In addition, a growth inhibitory assay (GIA) was used to determine the bioactivity of the TGF-β1. The GIA measures the ability of TGF-β1 to inhibit the growth of mink lung epithelial cells (ATCC #CCL64) (T. Ikedaet al., "Human Transforming Growth Factor Type β2: Production By a Prostatic Adenocarcinoma Cell Line, Purification and Initial Characterization," Biochemistry 26:2406-2410 (1987)). The activity of the growth factor was determined by the inhibitory response of the cells to different concentrations of TGF-β1. Cell viability was based on the enzymatic cleavage by metabolically active cells of a tetrazolium salt into an orange/red formazan product. Prior to the assay cells were trypsinized and plated in a 96-well flat bottomed plate (Costar) at a concentration of 1000 cells/well. After allowing the cells to attach, samples containing the TGF-β1 and a reference standard were diluted to concentrations ranging from 1000 to 1.95 pg/ml and added to the wells. The cells were incubated for four days after which time a 100 μL solution containing 25 μg of sodium 3"-[1-(phenylamino)-carbonyl]-3,4-tetrazolium-bis(4-methoxy-6-nitro) benzene sulfonic acid hydrate (Diagnostic Chemicals, Ltd.) and 5 mM phenazine methosulfate (Aldrich) in media was added to each well. The cells were then incubated for 7 hours and the plates read on a microplate reader at an absorbance of 450 nm with a 630 nm reference filter. The specific activity of a sample was calculated relative to the reference material.

Series [2] deals with mouse anti-TGF-β1 monoclonal antibody, 1D11. As to the kind of experiment: ELISA measured binding activity (immunoreactivity) of TGF-β1. On the procedure: The ability of released TGF-β1 from both untreated and acid treated beads (as described above) to be recognized (bound) by a monoclonal antibody was assayed by ELISA as follows. An enzyme linked immunosorbent assay (ELISA) was used to quantitate the amount of immunoreactive TGF-β1 released from the untreated (PBS) and acid treated (HCl) alginate beads. The ELISA was based on the ability of a mouse anti-TGF-β1 monoclonal antibody, 1D11 (Bristol-Myers Squibb, Seattle, WA), to bind to the TGF-β1 molecule. When the 1D11 antibody was coated on 96-well immunoassay plates it captured TGF-β1 from the applied sample and standard solutions. Captured TGF-β1 was then bound by biotinylated 1D11 antibody which in turn was bound by a horseradish peroxidase/avidin D conjugate (Vector Labs cat #A-2004). A color reaction occurred by adding a chromophore/substrate solution of 3,3',5,5'-tetramethylbenzidine in CPB containing hydrogen peroxide. The reaction was stopped with the addition of 1 N sulfuric acid and the A450 was determined by a plate reader. Concentrations of the unknown samples were quantified relative to a TGF-β1 standard curve run on the same plate.
The immunoreactivity of TGF-β1 in solution in the presence of anionic amino acids, polyanions and polycations was studied using the ELISA procedure described in Example 2. To 1 mg/mL solutions of TGF-β1 in 5 mM HCl was added from 0 to 0.14%(w/v) of glutamic acid, aspartic acid, poly-L-aspartic acid (PLAA, Mw=13 kDa), sodium carboxymethyl cellulose (Na CMC, high viscosity), or polyacrylic acid (PAA, 2, 90 or 750 kDa). The reactivity of the TGF-β1 was then determined by the ELISA procedure, as described in Example 2.
Next, the ability of the additives to […] was investigated. Alginate solutions were prepared in accordance with the procedure of Example 1, incorporating 50 μg of TGF-β1, 0-0.15% (w/v) of sodium alginate and 0.1-1.0 mg (up to 0.125% w/v) of PAA (750 kDa), PLAA (13 kDa), NaCMC high viscosity or glutamic acid. The immunoreactivity of TGF-β1 was determined by ELISA as described in Example 2.
Alginate beads were prepared according to the procedure of Example 1 incorporating 50 μg TGF-β1 and 0.1-1.0 mg of additives. […] In addition, Poly-L-Lysine (PLL;123 kDa) was incorporated as a potential polycationic competitor. The additives were incorporated at an alginate:additive w/w ratio of from 75:10 to 75:1 as indicated below in Table 3.
To further assess the effect of amount of PAA incorporation on immunoreactivity of released TGF-β1, alginate beads were prepared by incubating TGF-β1 and PAA (90 kDa) for either 5 or 60 minutes (see FIG. 7) in w/w ratios of 75:1, 75:6 and 75:10, followed by dilution, addition of alginate, and bead formation in 1% CaCl2. The beads were acid treated in 0.1 N HCl at 37° C. for 30 minutes and then incubated at 37° C. in PBS, pH 7.4.
In general terms: ELISA stands for enzyme-linked immunosorbent assay.

For series [3], the system named is mink lung epithelial cells (ATCC #CCL64). As to the kind of experiment: Growth inhibitory assay (GIA) bioactivity of released TGF-β1. It counts as cell-based. Particulars: acid treated beads 75:10 w/w PAA 90 kDa; PBS pH 7.4. On the procedure: as §1, with “After allowing the cells to attach, samples containing the TGF-β1 and a reference standard were diluted to concentrations ranging from 1000 to 1.95 pg/ml and added to the wells. The cells were incubated for four days after which time a 100 μL solution containing 25 μg of sodium 3"-[1-(phenylamino)-carbonyl]-3,4-tetrazolium-bis(4-methoxy-6-nitro) benzene sulfonic acid hydrate (Diagnostic Chemicals, Ltd.) and 5 mM phenazine methosulfate (Aldrich) in media was added to each well.” left out

Setting [4] is: acid treated beads 75:10 w/w PAA 90 kDa, PBS pH 7.4.

“TGF-β1: TGF-β1 (1 mg/mL in 5 mM HCl) obtained from Bristol-Myers Squibb (Seattle, WA)”: the “Effect of acid treatment time on dissolution profiles and TGF-β1 release rates” value in series [1] (0.1 N HCl 37° C. 0.25-24 hr, then PBS pH 7.4) is “little difference”. The “Total release of TGF-β1 (125I radiolabel)” value in series [1] (setting [4]) stood at 90%. Moreover, the “Effect of hydrolysis time on ELISA measured binding activity of TGF-β1” value in series [2] (0.1 N HCl, 37° C., 0.25-24 hr) was “no significant differences”. The “TGF-β1 released and immunoreactive (ELISA)” value in series [2] (setting [4]) is “over 80%”. The “% Binding Activity of released TGF-β1, HCl” value in series [2] (alginate beads acid treated in 0.1 N HCl, no additive) was determined as 14%. Moreover, in series [2] (alginate beads not acid treated (PBS), no additive), the “% Binding Activity of released TGF-β1, PBS” value was 0%. Further, the “ELISA binding activity of TGF-β1 released from beads alone, in words” value in series [2] (beads without PAA) was “no binding activity”. In series [2] (released from calcium-alginate beads, in presence of alginate alone, or in presence of PAA (750 kDa)), the “Immunoreactivity of TGF-β1, in words” value is “little immunoreactivity”. Further, the “Immunoreactivity of TGF-β1 with alginate, in words” value in series [2] (solution, 0.015% alginate, no additive) is recorded as “no immunoreactivity”. Also, in series [2] (solution, % Alginate (w/v) 0), the “% Active TGF-β1, 0% alginate” value is 100%. In series [2] (solution, % Alginate (w/v) 0.0015), the “% Active TGF-β1, 0.0015% alginate” value was 65%. For the same substance, in series [2] (solution, % Alginate (w/v) 0.015), the “% Active TGF-β1, 0.015% alginate” value was found to be 0%. In addition, the “% Active TGF-β1, 0.15% alginate” value in series [2] (solution, % Alginate (w/v) 0.15) amounted to 0%. Moreover, the “TGF-β1 bioactive (GIA)” value in series [3] is “more than 85%”.
